ChEMBL document CHEMBL5321282, “Design, Synthesis, and Biological Evaluation of Esculetin-Furoxan-DEAC Ternary Hybrids for Anti-Triple Negative Breast Cancer” (J Med Chem, 2023)
Activity calls are given as the source filed them. The rule behind the calls is not given here.

How the values were obtained:
[1] = tested on: MDA-MB-231; experiment: Antiproliferative activity against human MDA-MB-231 cells assessed as inhibition of cell growth measured after 48 hrs by MTT assay; format: functional, cell-based; settings: MDA-MB-231, 48 h
[2] = tested on: A549; experiment: Antiproliferative activity against human A549 cells assessed as inhibition of cell growth measured after 48 hrs by MTT assay; format: functional, cell-based; settings: A549, 48 h
[3] = tested on: MDA-MB-231; experiment: Antiproliferative activity against human MDA-MB-231 cells assessed as inhibition of cell growth measured after 48 hrs in presence of 3,4-bis(phenylsulfonyl)-1,2,5-oxadiazole 2-oxide by MTT assay; format: functional, cell-based; settings: MDA-MB-231, 48 h
[4] = tested on: MCF7; experiment: Antiproliferative activity against human MCF7 cells assessed as inhibition of cell growth measured after 48 hrs by MTT assay; format: functional, cell-based; settings: MCF7, 48 h
[5] = tested on: HCT-116; experiment: Antiproliferative activity against human HCT-116 cells assessed as inhibition of cell growth measured after 48 hrs by MTT assay; format: functional, cell-based; settings: HCT-116, 48 h
[6] = Selectivity index, ratio of IC50 for cytotoxicity against human MCF-10A cells to IC50 for antiproliferative activity against human MDA-MB-231 cells; format: toxicity, cell-based; settings: MCF-10A cells versus MDA-MB-231 cells, read-out: Ratio IC50
[7] = tested on: MDA-MB-231; experiment: Antiproliferative activity against human MDA-MB-231 cells assessed as effect on NO level at 25 uM incubated for 2 hrs; format: functional, cell-based
[8] = Cytotoxicity against human MCF-10A cells assessed as inhibition in cell growth measured after 48 hrs by MTT assay; format: toxicity, cell-based
[9] = tested on: MDA-MB-231; experiment: Antiproliferative activity against human MDA-MB-231 cells assessed as inhibition of cell growth measured after 48 hrs in presence of 7-(diethylamino)-2-oxo-2H-chromene-3-carboxylic acid by MTT assay; format: functional, cell-based; settings: MDA-MB-231, 48 h
[10] = Cytotoxicity against human L02 cells assessed as inhibition in cell growth measured after 48 hrs by MTT assay; format: toxicity, cell-based
[11] = Selectivity index, ratio of IC50 for cytotoxicity against human L02 cells to IC50 for antiproliferative activity against human MDA-MB-231 cells; format: toxicity, cell-based; settings: L02 cells versus MDA-MB-231 cells, read-out: Ratio IC50
[12] = tested on: MDA-MB-231; experiment: Induction of apoptosis in human MDA-MB-231 cells assessed as increase in CypD level incubated for 8 hrs by Western blotting analysis; format: functional, cell-based; settings: dose 5-20 nM
[13] = tested on: MDA-MB-231; experiment: Induction of apoptosis in human MDA-MB-231 cells assessed as effect on ANT level at 20 nM incubated for 8 hrs by Western blotting analysis; format: functional, cell-based
[14] = Toxicity in BALB/C mouse xenografted with human MDA-MB-231 cells assessed as change in body weight at 2.5 mg/kg, ip administered every 2 days measured after 3 weeks; format: organism-based; settings: in vivo, 504 h

| SMILES | IC50 [1] | IC50 [2] | IC50 [4] | IC50 [5] | also measured |
| --- | --- | --- | --- | --- | --- |
| O=S(=O)(c1ccccc1)c1no[n+]([O-])c1S(=O)(=O)c1ccccc1 | 7910 nM | – | – | – | – |
| O=c1ccc2cc(O)c(O)cc2o1 [ESCULETIN] | > 50000 nM | > 50000 nM | > 50000 nM | > 50000 nM | IC50 [3]: 7470 nM |
| O=c1ccc2cc(OCCCCCOc3no[n+]([O-])c3S(=O)(=O)c3ccccc3)c(OCCCCCOc3no[n+]([O-])c3S(=O)(=O)c3ccccc3)cc2o1 | 100 nM | 2820 nM | 2120 nM | 3100 nM | – |
| O=c1ccc2cc(OCCCCCCOc3no[n+]([O-])c3S(=O)(=O)c3ccccc3)c(OCCCCCCOc3no[n+]([O-])c3S(=O)(=O)c3ccccc3)cc2o1 | 148 nM | 3050 nM | 10400 nM | 2410 nM | – |
| CCN(CC)c1ccc2cc(C(=O)OCCCCCCOc3cc4ccc(=O)oc4cc3OCCCCCCOc3no[n+]([O-])c3S(=O)(=O)c3ccccc3)c(=O)oc2c1 | 108 nM | 4430 nM | 2990 nM | 9140 nM | – |
| CCN(CC)c1ccc2cc(C(=O)OCCCCCCOc3no[n+]([O-])c3S(=O)(=O)c3ccccc3)c(=O)oc2c1 | – | – | – | – | Activity [12]: inactive; Activity [13]: inactive |
| COc1cccc2c1C(=O)c1c(O)c3c(c(O)c1C2=O)C[C@@](O)(C(=O)CO)C[C@@H]3O[C@H]1C[C@H](N)[C@H](O)[C@H](C)O1 [DOXORUBICIN] | – | – | 740 nM | 150 nM | IC50 at 48 h [8]: 740 nM; IC50 at 48 h [10]: 600 nM; Activity [14]: Non-Toxic |
| CCN(CC)c1ccc2cc(C(=O)OCCCCOc3cc4ccc(=O)oc4cc3OCCCCCCOc3no[n+]([O-])c3S(=O)(=O)c3ccccc3)c(=O)oc2c1 | 53 nM | 1610 nM | 2440 nM | 3750 nM | – |

Second part, led by results:

| IC50 [1] | IC50 [2] | IC50 [4] | IC50 [5] | SMILES | also measured |
| --- | --- | --- | --- | --- | --- |
| 53 nM | 2260 nM | 1060 nM | 3260 nM | CCN(CC)c1ccc2cc(C(=O)OCCCOc3cc4ccc(=O)oc4cc3OCCCCCCOc3no[n+]([O-])c3S(=O)(=O)c3ccccc3)c(=O)oc2c1 | – |
| 120 nM | 12500 nM | 5300 nM | 2690 nM | O=c1ccc2cc(O)c(OCCCCCCOc3no[n+]([O-])c3S(=O)(=O)c3ccccc3)cc2o1 | selectivity ratio [6]: 394; Activity [7]: Active; IC50 at 48 h [8]: 12600 nM; IC50 [9]: 130 nM; IC50 at 48 h [10]: 5730 nM; selectivity ratio [11]: 47.8 |
| 1990 nM | 11800 nM | 8710 nM | 5020 nM | O=c1ccc2cc(O)c(OCCCCOc3no[n+]([O-])c3S(=O)(=O)c3ccccc3)cc2o1 | – |
| 2160 nM | 12800 nM | 7940 nM | 4280 nM | O=c1ccc2cc(O)c(OCCCCCOc3no[n+]([O-])c3S(=O)(=O)c3ccccc3)cc2o1 | – |
| 2160 nM | 12100 nM | 11300 nM | 5970 nM | O=c1ccc2cc(O)c(OCCCOc3no[n+]([O-])c3S(=O)(=O)c3ccccc3)cc2o1 | – |
| 42 nM | 1210 nM | 3700 nM | 2030 nM | O=c1ccc2cc(OCCCCOc3no[n+]([O-])c3S(=O)(=O)c3ccccc3)c(OCCCCOc3no[n+]([O-])c3S(=O)(=O)c3ccccc3)cc2o1 | selectivity ratio [6]: 153; Activity [7]: Active; IC50 at 48 h [8]: 6440 nM; IC50 at 48 h [10]: 5640 nM; selectivity ratio [11]: 134 |
| 58 nM | 1960 nM | 2330 nM | 1120 nM | O=c1ccc2cc(OCCCOc3no[n+]([O-])c3S(=O)(=O)c3ccccc3)c(OCCCOc3no[n+]([O-])c3S(=O)(=O)c3ccccc3)cc2o1 | – |
